Data reported in ChEMBL document CHEMBL1127517 (J Med Chem, 1994).

Tests used:
[1] = biological target: T1, Sodium-dependent dopamine transporter (Rattus norvegicus, UniProt P23977); assay: Inhibitory constant towards reuptake of [125I]-13 from dopamine transporter in rat striatal membranes; type: cell membranes, Membrane
[2] = biological target: T1, Sodium-dependent dopamine transporter; assay: Inhibitory constant towards reuptake of [125I]-12 from dopamine transporter in rat striatal membranes; type: cell membranes, Membrane

T1 sequence (P23977 whole entry): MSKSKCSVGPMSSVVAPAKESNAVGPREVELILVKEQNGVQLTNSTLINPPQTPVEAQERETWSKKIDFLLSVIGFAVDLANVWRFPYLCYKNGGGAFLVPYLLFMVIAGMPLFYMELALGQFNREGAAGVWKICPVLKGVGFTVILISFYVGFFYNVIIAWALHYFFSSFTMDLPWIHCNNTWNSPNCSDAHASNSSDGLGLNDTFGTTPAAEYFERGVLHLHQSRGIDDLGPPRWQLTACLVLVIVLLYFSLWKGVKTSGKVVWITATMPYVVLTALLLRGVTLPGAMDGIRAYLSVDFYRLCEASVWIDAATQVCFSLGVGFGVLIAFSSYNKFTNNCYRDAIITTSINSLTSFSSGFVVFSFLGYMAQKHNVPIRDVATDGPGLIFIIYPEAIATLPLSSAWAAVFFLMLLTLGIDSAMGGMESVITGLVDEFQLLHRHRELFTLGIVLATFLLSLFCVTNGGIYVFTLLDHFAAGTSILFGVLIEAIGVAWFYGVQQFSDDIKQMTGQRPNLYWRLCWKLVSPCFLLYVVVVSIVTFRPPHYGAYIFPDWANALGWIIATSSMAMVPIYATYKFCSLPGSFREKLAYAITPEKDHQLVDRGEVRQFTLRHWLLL

With `OC1(c2ccc(Cl)cc2)c2ccccc2C2=NCCN21` (configuration not stated) [MAZINDOL] the Ki [1] was 41.6 nM and the Ki [2] was 32 nM.
